Key:
Conditions in all cases: exposure time: 72 h
E57 [1] = patient-derived glioblastoma stem cells of mesenchymal subtype; experiment: surviving fraction (nuclei count normalised to DMSO); higher = more cells surviving (less toxic)
E31 [2] = patient-derived glioblastoma stem cells of proneural subtype; experiment: as above
E21 [3] = patient-derived glioblastoma stem cells of mesenchymal subtype; experiment: as above
FT3469 [4] = normal neural stem cell line; experiment: as above
E34 [5] = patient-derived glioblastoma stem cells of proneural subtype; experiment: as above
E28 [6] = patient-derived glioblastoma stem cells of classical subtype; experiment: as above
E13 [7] = patient-derived glioblastoma stem cells of classical subtype; experiment: as above
E57 [8] = experiment: phenotypic distance (Euclidean, principal components) from DMSO controls (arbitrary units); higher = stronger morphological change
E31 [9] = experiment: as above
E21 [10] = experiment: as above
FT3469 [11] = experiment: as above
E34 [12] = experiment: as above
E28 [13] = experiment: as above
E13 [14] = experiment: as above
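Throughout, for phenotypic distance (Euclidean, principal components) from DMSO controls: cell Painting imaging in 384-well plates, CellProfiler features reduced to at least 20 principal components, Euclidean distance versus same-plate DMSO vehicle wells (0.1% v/v), median over six images per well.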
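Throughout, for surviving fraction (nuclei count normalised to DMSO): nuclei counted by high-content imaging of Hoechst-stained cells in laminin-coated 384-well plates, relative to 0.1% DMSO vehicle wells, with staurosporine as cell-death control.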

Clc1ccc(COC(Cn2ccnc2)c2ccc(Cl)cc2Cl)c(Cl)c1 (stereo unspecified) [Miconazole]
Conditions | phenotypic distance | surviving fraction
E13 [7], 4.1 nM | – | 0.787
E13 [7], 12.3 nM | – | 1.01
E13 [7], 37 nM | – | 0.925
E13 [7], 111.1 nM | – | 0.818
E13 [7], 333.3 nM | – | 0.709
E13 [7], 1000 nM | – | 0.814
E13 [7], 3000 nM | – | 0.539
E13 [14], 4.1 nM | 0.853 | –
E13 [14], 12.3 nM | 0.53 | –
E13 [14], 37 nM | 0.487 | –
E13 [14], 111.1 nM | 0.696 | –
E13 [14], 333.3 nM | 1.05 | –
E13 [14], 1000 nM | 1.1 | –
E13 [14], 3000 nM | 2.12 | –
E21 [3], 4.1 nM | – | 0.897
E21 [3], 12.3 nM | – | 1.05
E21 [3], 37 nM | – | 0.979
E21 [3], 111.1 nM | – | 1.01
E21 [3], 333.3 nM | – | 1.02
E21 [3], 1000 nM | – | 0.955
E21 [3], 3000 nM | – | 0.823
E21 [10], 4.1 nM | 0.64 | –
E21 [10], 12.3 nM | 0.477 | –
E21 [10], 37 nM | 0.693 | –
E21 [10], 111.1 nM | 0.637 | –
E21 [10], 333.3 nM | 0.796 | –
E21 [10], 1000 nM | 1.19 | –
E21 [10], 3000 nM | 2.32 | –
E28 [6], 4.1 nM | – | 1.09
E28 [6], 12.3 nM | – | 1.19
E28 [6], 37 nM | – | 1.06
E28 [6], 111.1 nM | – | 1.13
E28 [6], 333.3 nM | – | 1.07
E28 [6], 1000 nM | – | 0.886
E28 [6], 3000 nM | – | 0.537
E28 [13], 4.1 nM | 0.619 | –
E28 [13], 12.3 nM | 0.863 | –
E28 [13], 37 nM | 0.65 | –
E28 [13], 111.1 nM | 0.493 | –
E28 [13], 333.3 nM | 0.784 | –
E28 [13], 1000 nM | 0.766 | –
E28 [13], 3000 nM | 1.23 | –
E31 [2], 4.1 nM | – | 1
E31 [2], 12.3 nM | – | 1.04
E31 [2], 37 nM | – | 1.37
E31 [2], 111.1 nM | – | 0.936
E31 [2], 333.3 nM | – | 1.13
E31 [2], 1000 nM | – | 1.06
E31 [2], 3000 nM | – | 0.976
E31 [9], 4.1 nM | 0.925 | –
E31 [9], 12.3 nM | 0.493 | –
E31 [9], 37 nM | 1.32 | –
E31 [9], 111.1 nM | 0.834 | –
E31 [9], 333.3 nM | 1.3 | –
E31 [9], 1000 nM | 1.07 | –
E31 [9], 3000 nM | 1.51 | –
E34 [5], 4.1 nM | – | 0.9
E34 [5], 12.3 nM | – | 0.972
E34 [5], 37 nM | – | 1
E34 [5], 111.1 nM | – | 0.977
E34 [5], 333.3 nM | – | 1.01
E34 [5], 1000 nM | – | 0.981
E34 [5], 3000 nM | – | 0.82
E34 [12], 4.1 nM | 0.501 | –
E34 [12], 12.3 nM | 0.465 | –
E34 [12], 37 nM | 0.883 | –
E34 [12], 111.1 nM | 0.636 | –
E34 [12], 333.3 nM | 0.903 | –
E34 [12], 1000 nM | 0.701 | –
E34 [12], 3000 nM | 1.2 | –
E57 [1], 4.1 nM | – | 1.04
E57 [1], 12.3 nM | – | 1.09
E57 [1], 37 nM | – | 1.1
E57 [1], 111.1 nM | – | 1.06
E57 [1], 333.3 nM | – | 1.07
E57 [1], 1000 nM | – | 0.918
E57 [1], 3000 nM | – | 0.595
E57 [8], 4.1 nM | 0.349 | –
E57 [8], 12.3 nM | 0.269 | –
E57 [8], 37 nM | 0.652 | –
E57 [8], 111.1 nM | 1.25 | –
E57 [8], 333.3 nM | 0.929 | –
E57 [8], 1000 nM | 1.89 | –
E57 [8], 3000 nM | 3.89 | –
FT3469 [4], 4.1 nM | – | 1.17
FT3469 [4], 12.3 nM | – | 1.07
FT3469 [4], 37 nM | – | 0.966
FT3469 [4], 111.1 nM | – | 0.907
FT3469 [4], 333.3 nM | – | 0.954
FT3469 [4], 1000 nM | – | 0.875
FT3469 [4], 3000 nM | – | 0.492
FT3469 [11], 4.1 nM | 0.444 | –
FT3469 [11], 12.3 nM | 0.593 | –
FT3469 [11], 37 nM | 0.461 | –
FT3469 [11], 111.1 nM | 0.559 | –
FT3469 [11], 333.3 nM | 0.587 | –
FT3469 [11], 1000 nM | 0.791 | –
FT3469 [11], 3000 nM | 2.66 | –

CCCCC1C(=O)N(c2ccccc2)N(c2ccc(O)cc2)C1=O (stereo unspecified) [Oxyphenbutazone]
Conditions | phenotypic distance | surviving fraction
E13 [7], 4.1 nM | – | 1.06
E13 [7], 12.3 nM | – | 1.12
E13 [7], 37 nM | – | 0.991
E13 [7], 111.1 nM | – | 1.1
E13 [7], 333.3 nM | – | 1.11
E13 [7], 1000 nM | – | 1.04
E13 [7], 3000 nM | – | 0.978
E13 [14], 4.1 nM | 0.562 | –
E13 [14], 12.3 nM | 0.782 | –
E13 [14], 37 nM | 0.706 | –
E13 [14], 111.1 nM | 0.835 | –
E13 [14], 333.3 nM | 1.34 | –
E13 [14], 1000 nM | 0.708 | –
E13 [14], 3000 nM | 0.404 | –
E21 [3], 4.1 nM | – | 1.04
E21 [3], 12.3 nM | – | 1.09
E21 [3], 37 nM | – | 0.947
E21 [3], 111.1 nM | – | 1.05
E21 [3], 333.3 nM | – | 0.957
E21 [3], 1000 nM | – | 1.05
E21 [3], 3000 nM | – | 1.1
E21 [10], 4.1 nM | 0.965 | –
E21 [10], 12.3 nM | 0.677 | –
E21 [10], 37 nM | 0.635 | –
E21 [10], 111.1 nM | 0.699 | –
E21 [10], 333.3 nM | 0.588 | –
E21 [10], 1000 nM | 0.698 | –
E21 [10], 3000 nM | 0.735 | –
E28 [6], 4.1 nM | – | 1.06
E28 [6], 12.3 nM | – | 1.05
E28 [6], 37 nM | – | 1.06
E28 [6], 111.1 nM | – | 1.06
E28 [6], 333.3 nM | – | 0.96
E28 [6], 1000 nM | – | 1.02
E28 [6], 3000 nM | – | 1.07
E28 [13], 4.1 nM | 0.723 | –
E28 [13], 12.3 nM | 0.56 | –
E28 [13], 37 nM | 0.689 | –
E28 [13], 111.1 nM | 0.5 | –
E28 [13], 333.3 nM | 0.608 | –
E28 [13], 1000 nM | 0.532 | –
E28 [13], 3000 nM | 0.618 | –
E31 [2], 4.1 nM | – | 0.93
E31 [2], 12.3 nM | – | 0.906
E31 [2], 37 nM | – | 0.918
E31 [2], 111.1 nM | – | 1.01
E31 [2], 333.3 nM | – | 0.939
E31 [2], 1000 nM | – | 1.07
E31 [2], 3000 nM | – | 0.941
E31 [9], 4.1 nM | 0.939 | –
E31 [9], 12.3 nM | 1.97 | –
E31 [9], 37 nM | 0.848 | –
E31 [9], 111.1 nM | 0.364 | –
E31 [9], 333.3 nM | 0.728 | –
E31 [9], 1000 nM | 0.522 | –
E31 [9], 3000 nM | 0.632 | –
E34 [5], 4.1 nM | – | 0.971
E34 [5], 12.3 nM | – | 1.07
E34 [5], 37 nM | – | 0.978
E34 [5], 111.1 nM | – | 1.07
E34 [5], 333.3 nM | – | 1.04
E34 [5], 1000 nM | – | 1.11
E34 [5], 3000 nM | – | 1.01
E34 [12], 4.1 nM | 0.618 | –
E34 [12], 12.3 nM | 0.62 | –
E34 [12], 37 nM | 0.522 | –
E34 [12], 111.1 nM | 0.833 | –
E34 [12], 333.3 nM | 0.434 | –
E34 [12], 1000 nM | 1.17 | –
E34 [12], 3000 nM | 0.608 | –
E57 [1], 4.1 nM | – | 1.04
E57 [1], 12.3 nM | – | 1.02
E57 [1], 37 nM | – | 0.983
E57 [1], 111.1 nM | – | 0.979
E57 [1], 333.3 nM | – | 1.06
E57 [1], 1000 nM | – | 0.965
E57 [1], 3000 nM | – | 0.938
E57 [8], 4.1 nM | 0.925 | –
E57 [8], 12.3 nM | 0.967 | –
E57 [8], 37 nM | 0.794 | –
E57 [8], 111.1 nM | 0.629 | –
E57 [8], 333.3 nM | 0.441 | –
E57 [8], 1000 nM | 0.546 | –
E57 [8], 3000 nM | 0.652 | –
FT3469 [4], 4.1 nM | – | 0.985
FT3469 [4], 12.3 nM | – | 0.955
FT3469 [4], 37 nM | – | 0.951
FT3469 [4], 111.1 nM | – | 1.13
FT3469 [4], 333.3 nM | – | 1.03
FT3469 [4], 1000 nM | – | 0.989
FT3469 [4], 3000 nM | – | 1.08
FT3469 [11], 4.1 nM | 0.918 | –
FT3469 [11], 12.3 nM | 0.982 | –
FT3469 [11], 37 nM | 0.908 | –
FT3469 [11], 111.1 nM | 0.496 | –
FT3469 [11], 333.3 nM | 0.356 | –
FT3469 [11], 1000 nM | 0.51 | –
FT3469 [11], 3000 nM | 0.472 | –

— the supplement of paper PMC13207355
